Measurements published in patent US20160193240A1, “Ulmoside-A: Useful For Prevention Or Cure Of Metabolic Diseases” (COUNCIL OF SCIENTIFIC & INDUSTRIAL RESEARCH, priority 2013, published 2016).

Tested on: PGC-1α
Assay: PGC-1α acetylation status (immunoprecipitation, anti-acLys western) in C2C12 myotubes
Assay type: cell-based, mouse
Settings: 10 nM, 6 hours
Procedure: C. ULMA induces PGC-1α deacetylation. C2C12 myotubes plated in 10 cm dish were treated with vehicle (0.1% vol/vol DMSO) or 10 nM ULMA in DMSO for 6 h. The cell lysates were then incubated with 5 μg anti-PGC-1α antibody (Calbiochem) for 12 h at 4° C. on a rotating wheel set at 10 RPM. 20 μl of protein A and protein G sepharose beads (Sigma; 1:1) was then added to the solution and the incubation was continued for another 2 h. The tubes were then centrifuged (1000 RPM) for 1 min and the supernatant was discarded. The pellets were washed 7 times. The beads were boiled in 50 μl 2× lammeli buffer for 5 min and cooled immediately on ice and following quick spin, the supernatants were resolved by denaturing polyacrylamide gel electrophoresis and western blotted with anti-acetylated lysine (acLys) antibody. Data represent one of three independent experiments displaying identical pattern. […]

O=C1c2c(cc(O)c([C@@H]3O[C@H](CO)[C@@H](O)[C@H](O)[C@H]3O)c2O)O[C@@H](c2ccc(O)c(O)c2)[C@@H]1O [ULMA, (2S,3S)-(+)-3′,4′,5,7-tetrahydroxydihydroflavonol-6-C-β-D-glucopyranoside]
level of acetylated PGC-1α: decreased
